{"source": "patent US20240304334A1", "about": "“CLOTTABILITY-BASED PERSONALIZED TREATMENT (CPT) SYSTEM” (priority 2021, published 2024)", "key": {"[1]": {"system": "fibrinogen and fibrin-derivatives", "test": "CCT before and after anticoagulant in healthy volunteers", "type": "in vivo, human", "settings": "6 healthy volunteers; for CCT average after treatment: 3 hrs after last intake, rivaroxaban 15 mg twice daily 2.5 days, apixaban 10 mg twice daily 3.5 days; for CCT average before treatment: just before anticoagulant intake; for difference in CCT after vs before treatment: not statistical significant", "procedure": "The skilled person is aware of how to perform the CCT test. Thus, as an example, Multifibren-U from Siemens and/or HemoslL Fibrinogen-C from IL/Werfen can be used. Moreover, it is known that the CCT test can show a higher fibrinogen concentration than the actual concentration due to enhanced clotting efficiency by the pro-coagulable factors due to the thrombin activity. […] In such study, rivaroxaban study was performed on 6 healthy volunteers, with ages between 18-50 years. They fulfilled the criteria of normal vital signs and lab screening tests for infection, hematology and coagulation, and had no abnormalities at physical examination. They were given 15 mg rivaroxaban twice daily for 2.5 days. The dosage of twice-daily 15 mg was chosen as it is the highest approved dosage for the initial treatment of acute venous thromboembolism (VTE). The apixaban study was performed on another 6 healthy volunteers, with the same health profile requirements as rivaroxaban study. These 6 volunteers were given 10 mg apixaban twice daily for 3.5 days. Blood samples were drawn just before anticoagulants intake and 3 hrs after the last intake. Measurement of fibrinogen was in duplicate."}, "coagulation pathway": {"system": "coagulation pathway", "test": "Clottability test (CCT minus TFT) in plasma of patients on anticoagulants, clinical study C", "type": "in vivo, human", "settings": "individual patient plasma, single time point, on anticoagulant", "procedure": "For determination of the clottability of blood, combined clottability assays were performed using a (a) clot-based and (b) enzyme-based fibrinogen test. The information provided by the assay is whether the blood is normal-clottable, hyperclottable, or hypoclottable by measuring fibrinogen concentration in blood plasma.\nTo estimate the clotting dynamics, […]. Thus, clottability is determined by […] (clottability=CCT−TFT). Exemplary, high values after subtraction of the obtained concentrations of the tests indicate high amounts of pro-coagulable factors and thus increased thrombin activity. Therefore, the greater the in vivo thrombin activation, the higher the obtained values from the clottability test. This leads to the finding that high values relate to an increased clottability.\nThe skilled person is aware of how to perform the CCT test. Thus, as an example, Multifibren-U from Siemens and/or HemoslL Fibrinogen-C from IL/Werfen can be used. Moreover, it is known that the CCT test can show a higher fibrinogen concentration than the actual concentration due to enhanced clotting efficiency by the pro-coagulable factors due to the thrombin activity. […]"}, "[2]": {"settings": "co-administering Rifampicin (P-glycoprotein inducer); cited from earlier work"}, "Fibrin(ogen)": {"system": "Fibrin(ogen)", "test": "CCT in acute cerebral infarction patients", "type": "in vivo, human", "settings": "ACI patients", "procedure": "(§1) Seventy patients who had complete clinical record and were diagnosed with acute cerebral infarction (ACI), either validated by CT or MRI, were included into this study. They have to be the first time patients of ACI and the disease onset should be shorter than 72 hours, and the cause of the cerebral infarction was cardiac origin, and they were without abnormal renal function, without bleeding history and hemostatic abnormality. These 70 patients were divided into 2 groups, 35 in control group and the other 35 in observational group. The control group patients were treated with rivaroxaban (anticoagulant), while observational group patients were treated combined rivaroxaban and sodium ozagrel (anti-platelet). Sodium ozagrel inhibits platelet activation and aggregation through specific inhibition of thromboxane (TX) synthetase. Due to the inhibitory effect of ozagrel on platelet activation, platelets cease to become the main lipid surface of thrombin generation. Beside standard treatment such as enriched oxygen supply, etc, all 70 patients were treated with aspirin 100 mg/tablet/day. Additionally, the control and observational groups were given rivaroxaban 15 mg/tablet/day. On top of rivaroxaban, the observational group received intravenously and daily 80 mg of ozagrel sodium in 500 mL glucose (5%) solution. Everyone was treated for 2 weeks. Both groups have very similar age mean and range (40-70 years). After 2 weeks of treatment, clinical efficacy (neurological assessments), coagulation lab tests (only CCT is shown) and GCS scores of the two groups were compared. Neurological […] according to NIH stroke scale (NIHSS). When NIHSS score reduces ≥90%, the disability classification is grade 0, and the treatment is highly efficacious. When NIHSS score reduces to between 46% and 89%, the disability classification is grade 1 to 3, the treatment is considered efficacious. The treatment is no efficacious, when the score is below 46%."}, "[3]": {"system": "patients with acute cerebral infarction (ACI)", "test": "Glasgow coma score (GCS) in acute cerebral infarction patients", "type": "in vivo, human", "procedure": "Seventy patients who had complete clinical record and were diagnosed with acute cerebral infarction (ACI), either validated by CT or MRI, were included into this study. They have to be the first time patients of ACI and the disease onset should be shorter than 72 hours, and the cause of the cerebral infarction was cardiac origin, and they were without abnormal renal function, without bleeding history and hemostatic abnormality. These 70 patients were divided into 2 groups, 35 in control group and the other 35 in observational group. The control group patients were treated with rivaroxaban (anticoagulant), while observational group patients were treated combined rivaroxaban and sodium ozagrel (anti-platelet). Sodium ozagrel inhibits platelet activation and aggregation through specific inhibition of thromboxane (TX) synthetase. Due to the inhibitory effect of ozagrel on platelet activation, platelets cease to become the main lipid surface of thrombin generation. Beside standard treatment such as enriched oxygen supply, etc, all 70 patients were treated with aspirin 100 mg/tablet/day. Additionally, the control and observational groups were given rivaroxaban 15 mg/tablet/day. On top of rivaroxaban, the observational group received intravenously and daily 80 mg of ozagrel sodium in 500 mL glucose (5%) solution. Everyone was treated for 2 weeks. Both groups have very similar age mean and range (40-70 years). The coma assessment was carried out before and after treatment on all subjects, based on Glasgow coma score (GCS) scoring system, which has 15 as full score. The degree of coma is lighter and is reflected with higher score. The recovery based on GCS is summarized in Table 4, together with CCT results."}, "[4]": {"system": "patients with acute cerebral infarction (ACI)", "test": "Neurological assessment (NIHSS) in acute cerebral infarction patients", "type": "in vivo, human", "settings": "ACI patients n=35, 2 weeks, plus aspirin 100 mg/day", "procedure": "as §1"}, "[5]": {"settings": "human, in vivo", "experimental": "Plasma samples from 19 patients were tested to investigate the coagulation pathway activity using the clottability test (CCT and TFT) and D-dimer test. These patients were receiving various anticoagulant drugs, such as rivaroxaban, apixaban, edoxaban, dabigatran, or argatroban, and the drug concentrations of each individual were determined. The aim of the study was to examine the activity of the coagulation pathway by means of both, the clottability test and D-dimer test in relation to the determined drug concentration in the plasma."}, "D-dimer": {"system": "D-dimer", "test": "DD in AECOPD patients", "type": "in vivo, human", "from_the_text": "(§2) This is again another example how anticoagulant treatment reduces pathological in vivo thrombin generation with the concomitant reduction of fibrin-derivatives detectable by CCT. This example is a highly prevalent (>10%) progressive chronic disease, which has strong clinical manifestations of immune and coagulation systems. Chronic obstructive pulmonary disease (COPD) is an inflammatory lung disease that affects respiratory function with concomitant high thrombosis risk. In this example, study subjects were the 70 patients diagnosed with COPD and developed acute exacerbation form of COPD (AECOPD). On top of the standard AECOPD treatments e.g. anti-infection, bronchodilation, phlegm elimination, and oxygen treatment, etc, 32 of these AECOPD patients received no additional treatment and the other 38 of them were treated with low molecular weight heparin calcium (LMWH, 4100 IU anti-FXa/injection every 12 hrs, for 10 days).\n(§3) Treatment efficacy was evaluated based on several parameters: pulmonary function, blood gas analysis and coagulation parameters. […] The pulmonary function was measured with several methods, such as FEV1 (measurement of forced expiratory volume in 1 sec after bronchodilator was inhaled) and FVC (forced vital capacity, and the ratio of FEV/FVC in % as clinical signs of respiratory performance). […] Several blood coagulation parameters were measured; they are CCT, DD, PT-INR."}, "[6]": {"system": "fibrinogen and fibrin-derivatives", "test": "CCT in AECOPD patients", "type": "in vivo, human", "from_the_text": "as §2, §3"}, "coagulation system": {"system": "coagulation system", "test": "PT and INR in AECOPD patients", "type": "in vivo, human", "from_the_text": "as §2\n(§4) Treatment efficacy was evaluated based on several parameters: pulmonary function, blood gas analysis and coagulation parameters. All this information were obtained before and after the LMWH anticoagulant treatment, the same for the control group. The pulmonary function was measured with several methods, such as FEV1 (measurement of forced expiratory volume in 1 sec after bronchodilator was inhaled) and FVC (forced vital capacity, and the ratio of FEV/FVC in % as clinical signs of respiratory performance). Blood gas analysis was obtained by measuring oxygen saturation of blood (SO2), partial pressure of oxygen (PO2) and partial pressure of carbon dioxide (PCO2). Several blood coagulation parameters were measured; they are CCT, DD, PT-INR."}, "AECOPD patients [7]": {"system": "AECOPD patients", "test": "Blood gas analysis in AECOPD patients", "type": "in vivo, human", "settings": "for PCO2 / SO2: AECOPD", "from_the_text": "as §2, §4"}, "AECOPD patients [8]": {"system": "AECOPD patients", "test": "Pulmonary function in AECOPD patients", "type": "in vivo, human", "from_the_text": "as §2, §4"}}, "note": "Where “and” joins values, the source holds several entries; their conditions need not be identical. Equal entries are not always repeated."}
{"compound": "COc1ccc(-n2nc(C(N)=O)c3c2C(=O)N(c2ccc(N4CCCCC4=O)cc2)CC3)cc1", "note": "[apixaban]", "values": [{"measurement": "CCT average after treatment", "setting": "[1]", "value": 2.38}, {"measurement": "CCT average before treatment", "setting": "[1]", "value": 2.56}, {"measurement": "difference in CCT after vs before treatment", "setting": "[1]", "value": "−0.18"}, {"measurement": "Clottability test", "setting": "coagulation pathway", "value": "> 1.5 g/L and 2.7 g/L and 0.8 g/L and 1.8 g/L"}]}
{"compound": "[H]/N=C(/N)c1ccc(NCc2nc3cc(C(=O)N(CCC(=O)O)c4ccccn4)ccc3n2C)cc1", "note": "[dabigatran]", "values": [{"measurement": "decrease of maximum plasma concentration of dabigatran", "setting": "[2]", "value": "approximately 67%"}]}
{"compound": "O=C(NC[C@H]1CN(c2ccc(N3CCOCC3=O)cc2)C(=O)O1)c1ccc(Cl)s1", "note": "[rivaroxaban]", "values": [{"measurement": "CCT average after treatment", "setting": "[1]", "value": 2.64}, {"measurement": "CCT average before treatment", "setting": "[1]", "value": 2.75}, {"measurement": "difference in CCT after vs before treatment", "setting": "[1]", "value": "−0.11"}, {"measurement": "Clottability test", "setting": "coagulation pathway", "value": "> 1.5 g/L and 1.7 g/L and -0.5 g/L and 0.6 g/L and 2 g/L"}, {"measurement": "Fibrin(ogen) CCT", "setting": "Fibrin(ogen); T0 before treatment", "value": "3.93 ± 1.49"}, {"measurement": "Fibrin(ogen) CCT", "setting": "Fibrin(ogen); T1 after 2 weeks of treatment", "value": "3.15 ± 1.12"}, {"measurement": "Fibrin(ogen) CCT, difference in mean", "setting": "Fibrin(ogen); T1 vs T0", "value": "−0.78"}, {"measurement": "GCS score", "setting": "[3]; T0 before treatment", "value": "6.8 ± 1.11"}, {"measurement": "GCS score", "setting": "[3]; T1 after 2 weeks of treatment", "value": "9.07 ± 1.92"}, {"measurement": "GCS score, difference in mean", "setting": "[3]; T1 vs T0", "value": 2.27}, {"measurement": "efficacious (NIHSS reduction 46% to 89%), number of patients", "setting": "[4]", "value": 8}, {"measurement": "efficacious (NIHSS), share of patients", "setting": "[4]", "value": "(22.9%)"}, {"measurement": "highly efficacious (NIHSS score reduces ≥90%), number of patients", "setting": "[4]", "value": 16}, {"measurement": "highly efficacious (NIHSS), share of patients", "setting": "[4]", "value": "(45.7%)"}, {"measurement": "non-efficacious (NIHSS below 46%), number of patients", "setting": "[4]", "value": 11}, {"measurement": "non-efficacious (NIHSS), share of patients", "setting": "[4]", "value": "(31.4%)"}, {"measurement": "total efficacious (NIHSS), number of patients", "setting": "[4]", "value": 24}, {"measurement": "total efficacious (NIHSS), share of patients", "setting": "[4]", "value": 68.6, "unit": "%"}]}
{"compound": "CC1CNc2c(cccc2S(=O)(=O)N[C@@H](CCCNC(=N)N)C(=O)N2CC[C@@H](C)C[C@@H]2C(=O)O)C1", "note": "(stereo partly drawn) [argatroban]", "values": [{"measurement": "PK profile", "setting": "[5]", "value": "bottom"}]}
{"compound": "low molecular weight heparin calcium [LMWH]", "values": [{"measurement": "DD", "setting": "D-dimer; after treatment", "value": 237.4, "unit": "µg/L"}, {"measurement": "DD", "setting": "D-dimer; before treatment", "value": 482.8, "unit": "µg/L"}, {"measurement": "CCT", "setting": "[6]; after treatment", "value": 2.16}, {"measurement": "CCT", "setting": "[6]; before treatment", "value": 3.97}, {"measurement": "INR", "setting": "coagulation system; after treatment", "value": 1.36}, {"measurement": "PT", "setting": "coagulation system; after treatment", "value": 13.7}, {"measurement": "INR", "setting": "coagulation system; before treatment", "value": 0.87}, {"measurement": "PT", "setting": "coagulation system; before treatment", "value": 9.6}, {"measurement": "PO2", "setting": "AECOPD patients [7]; AECOPD patients n=38, after 10 days LMWH plus standard treatment", "value": 78.4, "unit": "mmHg"}, {"measurement": "PO2", "setting": "AECOPD patients [7]; AECOPD patients n=38, before treatment", "value": 71.5, "unit": "mmHg"}, {"measurement": "PCO2", "setting": "AECOPD patients [7]; after treatment", "value": 41.9, "unit": "mmHg"}, {"measurement": "SO2", "setting": "AECOPD patients [7]; after treatment", "value": 98.6, "unit": "%"}, {"measurement": "PCO2", "setting": "AECOPD patients [7]; before treatment", "value": 52.2, "unit": "mmHg"}, {"measurement": "SO2", "setting": "AECOPD patients [7]; before treatment", "value": 90.8, "unit": "%"}, {"measurement": "FEV1", "setting": "AECOPD patients [8]; after treatment", "value": 1.89, "unit": "L"}, {"measurement": "FEV1/FVC", "setting": "AECOPD patients [8]; after treatment", "value": 78.4, "unit": "%"}, {"measurement": "FEV1", "setting": "AECOPD patients [8]; before treatment", "value": 1.36, "unit": "L"}, {"measurement": "FEV1/FVC", "setting": "AECOPD patients [8]; before treatment", "value": 62.3, "unit": "%"}]}
